One data set has as its system intestinal microbiota. Description: FIM study: microbiota analyses of stool samples (16S rRNA V3-V4 sequencing). Type of data set: in vivo, human. The following applies: for abundance-based (Bray curtis) bacterial communities distance compared with a healthy normal reference group: baseline vs end of FIM study. The source says: For microbiota analyses, stool samples were collected on the first Monday of the study (day 0, baseline sample) and subsequently once weekly on Thursdays (Table 7). Total genomic DNA was extracted from feces collected longitudinally from each subject using MoBio Powersoil DNA Isolation kit (Dianova GmbH, Hamburg, Germany) according to the manufacturer's instructions. Aliquots of extracted DNA were used to amplify the V3-V4 variable region of 16S rRNA using composite primers (319F and 806R), as described by Fadrosh et al. (Microbiome 2:6, 2014). Amplification was performed by Phusion® hot start flex 2X master mix (New England Biolabs, Frankfurt/M., Germany) in a GeneAmp PCR system 9700 (Life Technologies/Applied Biosystems, Darmstadt, Germany) using the following cycling conditions: an initial denaturation of 3 min at 98° C. followed by 30 cycles of denaturation at 98° C. for 10 s, annealing at 55° C. for 30 s and elongation at 72° C. for 30 s, and a final extension step at 72° C. for 10 min. PCR performance was assessed by agarose gel electrophoresis for quality (expected amplicon size) and quantity (band intensity). Quantitative normalization was performed using the SequalPrep kit (Life/Technologies/Invitrogen, Darmstadt, Germany) to pool equal amounts of amplicons per sample. Sequencing was performed by Illumina MiSeq (2×250 sequencing kit; Illumina, San Diego, Calif., USA), which allowed to generate paired end reads with entire overlapping in contigs generation. Sequencing reads were primarily processed for quality control using the software mothur (Schloss et al. 2009, Appl. Environ. Microbiol. 75:7537). Forward and reverse reads (fastq) were assembled to contig sequences and discarded if they had more than 475 bases, any ambiguous base or more than 8 homopolymers. Sequences were aligned against the mothur-curated silva alignment database and screened to have alignment in the amplified specified V3-V4 region only. Chimeric sequences were detected with the Uchime algorithm (Edgar et al. 2011, Bioinformatics 27:2194) and were also removed. […]

A short description of data set [1]: FIM dose escalation study: safety parameters (routine laboratory, blood pressure, body weight). To be noted: week 1 hour 71: 30 mg free NA (NA group) or 900 mg free NAM (NAM group) daily; individual subjects.
Method: (§1) Ten healthy volunteers were included and allocated to 2 groups of 5 subjects each. One group received NA and the other group received NAM.
In this dose escalation study, subjects ingested the test items in the morning from Monday to Thursday of every week, followed by a three-day washout period from Friday to Sunday (Table 7). Before and until 30 min after administration (or until after the second blood sampling on Mondays), subjects fasted with water only. During week 1, the subjects took one daily dose of 30 mg unformulated NA or 900 mg unformulated NAM, respectively, to measure the maximum systemic exposure and peak serum levels according to nutritional tolerable upper intake levels or levels without anticipated side effects (Table 8).
In order to determine the intake of NA and NAM via the usual diet, a nutritional protocol was completed by the subjects from Mondays to Wednesdays. Blood samples were collected on Mondays and Thursdays (Table 7). On Mondays, the first blood sample was collected before ingestion of the capsules (“0 h” samples), and a second blood sample was taken after 2 hours (“2 h”), while subjects were still fasting. On Thursdays, blood samples were taken after administration of the capsules (“72 h”). Blood samples were subjected to routine laboratory analyses at the central laboratory of the University Hospital Schleswig-Holstein in Kiel (Germany). […] Blood pressure was measured on Mondays and Thursdays (Table 7).
Data set [2] is described as follows: First-in-man (FIM) dose escalation study: NA and NAM serum levels by LC-MS/MS. It is filed as in vivo, human.
Method: as §1
In this dose escalation study, subjects ingested the test items in the morning from Monday to Thursday of every week, followed by a three-day washout period from Friday to Sunday (Table 7). Before and until 30 min after administration (or until after the second blood sampling on Mondays), subjects fasted with water only. During week 1, the subjects took one daily dose of 30 mg unformulated NA or 900 mg unformulated NAM, respectively, to measure the maximum systemic exposure and peak serum levels according to nutritional tolerable upper intake levels or levels without anticipated side effects (Table 8). From week 2 until week 6, NA microcapsules or NAM microcapsules packaged in gelatin capsules (see Example 1) were administered with weekly dose increases (Tables 7 and 8).
Blood samples were collected on Mondays and Thursdays (Table 7). On Mondays, the first blood sample was collected before ingestion of the capsules (“0 h” samples), and a second blood sample was taken after 2 hours (“2 h”), while subjects were still fasting. […] In addition, NA and NAM levels were measured in all blood samples by LC-MS/MS in an external specialised laboratory to determine exposure (see Example 1).
The nature of the next data set: clinical. The following applies: both, human, in vivo, 900 mg, mean. The protocol:
The study consisted of four study days, each separated by one week of washout and regeneration. On the calibration day of the study, the subjects ingested 30 mg of unformulated NA (NA group) or 900 mg of unformulated NAM (NAM group) as in the FIM study (see Example 2). Different doses of microencapsulated NA or NAM packaged in gelatin capsules were administered on the other three study days: 30 mg NA or 900 mg NAM, 150 mg NA or 1500 mg NAM, and 300 mg NA or 3000 mg NAM.
After 12 h of fasting overnight (with water only), a fasted blood sample was collected. After ingestion of NA, NAM or the respective capsules, blood samples were collected every hour until 8 hours after ingestion as well as after 10 and 12 hours. During the collection of blood samples, subjects remained fasted (with water ad libitum) except for two light meals with minimal vitamin B3 content after the blood samplings of hour 3 and hour 8. One such “low niacin meal” consisted of three rice wafers, one apple and one carrot with a total of 2.3 mg of niacin equivalents.
Statistical analyses were carried out using SPSS version 22.0 (SPSS, Chicago, Ill., USA), and graphic data analysis was performed with GraphPad Prism version 5.0 (GraphPad Software, San Diego, Calif., USA). […]

Data set [3] in a line: Pilot pharmacokinetic (PK) study with NAM microcapsules: NA and NAM serum levels. It is filed as in vivo, human. The protocol:
The study was a self-experiment by medical investigators performed at the Department of Internal Medicine 1 of the University Hospital Schleswig-Holstein, Campus Kiel (Kiel, Germany).
In this study, subjects ingested either 900 mg of unformulated NAM (first week) or 900 mg of microencapsulated NAM packaged in gelatin capsules (second week). […] One such “low niacin meal” consisted of 150 g of apple, 150 g of red pepper and 100 g of cucumber. One niacin equivalent is defined as 1 mg of NA(M) or 60 mg of tryptophan.
Height and body weight were recorded before ingestion of the test item.

Data set [4] in a line: pH properties of shellac and NAM (dissolution pH, pH value). It is filed as physicochemical.

We go through two molecules from patent publication US20210275513A1, “SHELLAC MICROCAPSULE FORMULATIONS AND COMPOSITIONS FOR TOPICAL INTESTINAL DELIVERY OF VITAMIN B3” (CONARIS RESEARCH INSTITUTE AG, priority 2016, published 2021).

The structures appear in SMILES notation. Several values for one entry are separate records, joined by “and”; a condition that tells them apart may be missing. Identical values can stand only once.

With `O=C(O)c1cccnc1` [free NA, nicotinic acid], the “abundance-based (Bray curtis) bacterial communities distance compared with a healthy normal reference group” value in the data set with intestinal microbiota is recorded as “significant change”. In the data set with intestinal microbiota (before, during and at the end of the FIM study), the “Bacteroidetes (read counts)” value is given as “moderate, but overall significant increase”. Further, in data set [1], the “Blood pressure, systolic” value is 120 mm Hg and 130 mm Hg (2×) and 115 mm Hg and 105 mm Hg; the Glucose is 77 mg/dL and 92 mg/dL and 89 mg/dL and 85 mg/dL and 94 mg/dL. In data set [2], the “accumulation (serum levels at 72 hours vs baseline levels)” value is given as “No NA or NAM accumulation was observed”.

Broadly, the AUC is concentration integrated over time. The low end stands for low exposure, the high end for high exposure. In turn, `NC(=O)c1cccnc1` [free NAM, nicotinamide] returned an exposure (AUC) in the data set “clinical” of 78300 ng·h/mL. Further, the “abundance-based (Bray curtis) bacterial communities distance compared with a healthy normal reference group” value in the data set on intestinal microbiota is given as “trend”. Further, the NAM serum levels is 19,900 μg/L and 20,100 μg/L in data set [3] (900 mg free or enc. NAM, hour 1, subjects 1-3); 15,900 μg/L and 17,200 μg/L in data set [3] (900 mg free or enc. NAM, hour 2, subjects 1-3); 9,740 μg/L and 13,100 μg/L in data set [3] (900 mg free or enc. NAM, hour 3, subjects 1-3); 7,390 μg/L and 10,300 μg/L in data set [3] (900 mg free or enc. NAM, hour 4, subjects 1-3). Besides, the “time of peak of NAM serum levels after ingestion” value in data set [3] (900 mg, three healthy volunteers) came to 1 h. Besides, the concentration at 1 h in data set [3] (human, serum, oral, 900 mg, 900 mg free or enc. NAM, hour 1, subjects 1-3) was determined as 11600 ng/mL. The molecule further gave a concentration at 2 h in data set [3] (human, serum, oral, 900 mg, 900 mg free or enc. NAM, hour 2, subjects 1-3) of 10300 ng/mL. Besides, the concentration at 3 h in data set [3] (human, serum, oral, 900 mg, 900 mg free or enc. NAM, hour 3, subjects 1-3) stood at 8380 ng/mL. Also, in data set [3] (human, serum, oral, 900 mg, 900 mg free or enc. NAM, hour 4, subjects 1-3), the concentration at 4 h was 5920 ng/mL. For the same molecule, the “Blood pressure, systolic” value in data set [1] was 120 mm Hg (4×) and 105 mm Hg. For the same molecule, the Glucose in data set [1] is 87 mg/dL and 80 mg/dL and 92 mg/dL and 84 mg/dL and 83 mg/dL. Moreover, the “accumulation (serum levels at 72 hours vs baseline levels)” value in data set [2] is listed as “No NA or NAM accumulation was observed”. For the same molecule, the pH value in data set [4] is on record as 6.61.
